Values after ≈ are worked out from the molar mass of the structure shown.
How the values were obtained:
MRSA(SA11I4) = type: cell-based, Staphylococcus aureus
Method: (§1) Susceptibility to teixobactin and its analogues was tested on the selected Gram-positive strains using Tecan Freedom EVO high-throughput automated platform, following the standard broth dilution method as described by the Clinical and Laboratory Standards Institute ^3. MICS were determined according to CLSI guideline.

SA (ATCC29213) = type: cell-based, Staphylococcus aureus
Method: as §1

MRSA and SA strains = assay: MIC, summary over S. aureus strains; type: cell-based, Staphylococcus aureus; settings: MRSA clinical isolate and MSSA ATCC29213; from MICs
Method: as §1

[1] = test system: Staphylococcus aureus strain ATCC43300; assay: Wax worm survival model infected with S. aureus; type: in vivo, Galleria mellonella
Description: FIG. 2. In vivo antibacterial activities of certain antibiotics of the invention. Efficacy of teixobactin and certain antibiotics of the invention for treating infections caused by Staphylococcus aureus strain ATCC43300 was studied in wax worm larvae (Galleria mellonella) model. PBS, control group without infection and treated with PBS: All other groups (20 each group) were infected with 10^7 CFU of S. aureus strain ATCC43300 followed by no treatment or treatment with one dose of vancomycin at 10 mg/kg (A-10) or 50 mg/kg (A-50), teixobactin at 10 mg/kg (B-10) or 50 mg/kg (B-50), or one dose of the representative analogue, Chg10-teixobactin, at 10 mg/kg (C-10) or 50 mg/kg (C-50).
Exemplary in vivo antibacterial activity: Chg10-Teixobactin was studied in wax worm survival models infected with S. aureus strain ATCC43300. Teixobactin were used as controls. […] At a dose of 50 mg/kg, Chg10-Teixobactin protected 100% infected wax worms (See FIG. 2).

Enterococcus ET60 = type: cell-based
Method: as §1

Enterococcus ATCCET = type: cell-based
Method: as §1

Enterococcus ET6 = type: cell-based
Method: as §1

[2] = test system: Streptococcus faecalis SF; type: cell-based
Method: as §1

MRSA SA88 = type: cell-based, Staphylococcus aureus
Method: as §1

MRSA SA11 = type: cell-based, Staphylococcus aureus
Method: as §1

MRSA SA86 = type: cell-based, Staphylococcus aureus
Method: as §1

Structure (SMILES)	Minimum inhibitory concentration (MIC) MRSA(SA11I4) (MRSA(SA11I4)) [µg/mL]	Minimum inhibitory concentration (MIC) SA (ATCC29213) (SA (ATCC29213)) [µg/mL]	Minimum inhibitory concentration (MIC) Enterococcus ET60 (Enterococcus ET60) [µg/mL]	Minimum inhibitory concentration (MIC) Enterococcus ATCCET (Enterococcus ATCCET) [µg/mL]	Minimum inhibitory concentration (MIC) Enterococcus ET6 (Enterococcus ET6) [µg/mL]	Minimum inhibitory concentration (MIC) Streptococcus faecalis SF [2] [µg/mL]	Minimum inhibitory concentration (MIC) MRSA SA88 (MRSA SA88) [µg/mL]	Minimum inhibitory concentration (MIC) MRSA SA11 (MRSA SA11) [µg/mL]	Minimum inhibitory concentration (MIC) MRSA SA86 (MRSA SA86) [µg/mL]	Antibacterial activity compared with teixobactin (MRSA and SA strains)	Infected wax worms protected ([1]; one dose of 50 mg/kg, wax worms infected with S. aureus ATCC43300) [%]	In vivo antibacterial activities, teixobactin as control ([1]; one dose treatment, wax worm survival model, S. aureus ATCC43300)
CC[C@@H](C)[C@@H](NC(=O)[C@@H](CCC(N)=O)NC(=O)[C@H](CO)NC(=O)[C@@H](NC(=O)[C@@H](Cc1ccccc1)NC)[C@@H](C)CC)C(=O)N[C@H](C(=O)N[C@@H](CO)C(=O)N[C@H]1C(=O)N[C@@H](C)C(=O)N[C@@H](CC2CCCCC2)C(=O)N[C@@H]([C@@H](C)CC)C(=O)O[C@H]1C)[C@@H](C)CC [Cha10-teixobactin]	2 (≈ 1.61 µM)	0.5 (≈ 0.403 µM)								comparable activities as teixobactin		
CC[C@@H](C)[C@@H](NC(=O)[C@@H](CCC(N)=O)NC(=O)[C@H](CO)NC(=O)[C@@H](NC(=O)[C@@H](Cc1ccccc1)NC)[C@@H](C)CC)C(=O)N[C@H](C(=O)N[C@@H](CO)C(=O)N[C@H]1C(=O)N[C@@H](C)C(=O)N[C@@H](C2CCCCC2)C(=O)N[C@@H]([C@@H](C)CC)C(=O)O[C@H]1C)[C@@H](C)CC [Chg10-teixobactin]	1 (≈ 0.815 µM)	0.25 (≈ 0.204 µM)								two times higher activities than teixobactin	100	improved antibacterial activities
CC[C@@H](C)[C@@H](NC(=O)[C@@H](CCC(N)=O)NC(=O)[C@H](CO)NC(=O)[C@@H](NC(=O)[C@@H](Cc1ccccc1)NC)[C@@H](C)CC)C(=O)N[C@H](C(=O)N[C@@H](CO)C(=O)N[C@H]1C(=O)N[C@@H](C)C(=O)N[C@@H](CCSC)C(=O)N[C@@H]([C@@H](C)CC)C(=O)O[C@H]1C)[C@@H](C)CC [Met10-teixobactin/Methibactin, Met10-teixobactin]	1 (≈ 0.82 µM)	0.25 (≈ 0.205 µM)								two times higher activities than teixobactin		
CCCC[C@@H]1NC(=O)[C@H](C)NC(=O)[C@H](NC(=O)[C@H](CO)NC(=O)[C@@H](NC(=O)[C@H](NC(=O)[C@@H](CCC(N)=O)NC(=O)[C@H](CO)NC(=O)[C@@H](NC(=O)[C@@H](Cc2ccccc2)NC)[C@@H](C)CC)[C@H](C)CC)[C@@H](C)CC)[C@H](C)OC(=O)[C@H]([C@@H](C)CC)NC1=O [Nle10-teixobactin]	2 (≈ 1.66 µM)	0.5 (≈ 0.416 µM)								comparable activities as teixobactin		
CCC[C@@H]1NC(=O)[C@H](C)NC(=O)[C@H](NC(=O)[C@H](CO)NC(=O)[C@@H](NC(=O)[C@H](NC(=O)[C@@H](CCC(N)=O)NC(=O)[C@H](CO)NC(=O)[C@@H](NC(=O)[C@@H](Cc2ccccc2)NC)[C@@H](C)CC)[C@@H](C)CC)[C@@H](C)CC)[C@H](C)OC(=O)[C@H]([C@@H](C)CC)NC1=O [Nva10-teixobactin]	1 (≈ 0.842 µM)	0.25 (≈ 0.211 µM)								two times higher activities than teixobactin		
CC[C@H](C)[C@H](NC(=O)[C@@H](Cc1ccccc1)NC)C(=O)N[C@@H](CO)C(=O)N[C@H](CCC(N)=O)C(=O)N[C@@H](C(=O)N[C@H](C(=O)N[C@@H](CO)C(=O)N[C@H]1C(=O)N[C@@H](C)C(=O)N[C@@H](Cc2ccc(F)cc2)C(=O)N[C@@H]([C@@H](C)CC)C(=O)O[C@H]1C)[C@@H](C)CC)[C@@H](C)CC [Phe(4-F)10-teixobactin/Flurobactin, Phe(4-F)10-teixobactin]	1 (≈ 0.798 µM)	0.5 (≈ 0.399 µM)								two times higher activities than teixobactin		
CC[C@@H](C)[C@@H](NC(=O)[C@@H](CCC(N)=O)NC(=O)[C@H](CO)NC(=O)[C@@H](NC(=O)[C@@H](Cc1ccccc1)NC)[C@@H](C)CC)C(=O)N[C@H](C(=O)N[C@@H](CO)C(=O)N[C@H]1C(=O)N[C@@H](C)C(=O)N[C@@H](CC2CC2)C(=O)N[C@@H]([C@@H](C)CC)C(=O)O[C@H]1C)[C@@H](C)CC [β-cyclopropyl-Ala10-teixobactin]	2 (≈ 1.67 µM)	0.5 (≈ 0.417 µM)								comparable activities as teixobactin		

Further lines, with some results ahead:

Minimum inhibitory concentration (MIC) MRSA(SA11I4) (MRSA(SA11I4)) [µg/mL]	Minimum inhibitory concentration (MIC) SA (ATCC29213) (SA (ATCC29213)) [µg/mL]	Minimum inhibitory concentration (MIC) Enterococcus ET60 (Enterococcus ET60) [µg/mL]	Minimum inhibitory concentration (MIC) Enterococcus ATCCET (Enterococcus ATCCET) [µg/mL]	Minimum inhibitory concentration (MIC) Enterococcus ET6 (Enterococcus ET6) [µg/mL]	Minimum inhibitory concentration (MIC) Streptococcus faecalis SF [2] [µg/mL]	Minimum inhibitory concentration (MIC) MRSA SA88 (MRSA SA88) [µg/mL]	Minimum inhibitory concentration (MIC) MRSA SA11 (MRSA SA11) [µg/mL]	Minimum inhibitory concentration (MIC) MRSA SA86 (MRSA SA86) [µg/mL]	Structure (SMILES)	Antibacterial activity compared with teixobactin (MRSA and SA strains)	Infected wax worms protected ([1]; one dose of 50 mg/kg, wax worms infected with S. aureus ATCC43300) [%]	In vivo antibacterial activities, teixobactin as control ([1]; one dose treatment, wax worm survival model, S. aureus ATCC43300)
1 (≈ 0.815 µM)	0.5 (≈ 0.408 µM)	0.5 (≈ 0.408 µM)	1 (≈ 0.815 µM)	1 (≈ 0.815 µM)	0.5 (≈ 0.408 µM)	0.5 (≈ 0.408 µM)	0.5 (≈ 0.408 µM)	1 (≈ 0.815 µM)	CC[C@@H](C)[C@@H](NC(=O)[C@@H](CCC(N)=O)NC(=O)[C@H](CO)NC(=O)[C@@H](NC(=O)[C@@H](Cc1ccccc1)NC)[C@@H](C)CC)C(=O)N[C@H](C(=O)N[C@@H](CO)C(=O)N[C@H]1C(=O)N[C@@H](C)C(=O)N[C@@H](C2CCCCC2)C(=O)N[C@@H]([C@@H](C)CC)C(=O)N[C@H]1C)[C@@H](C)CC [T83]			
1 (≈ 0.833 µM)	0.5 (≈ 0.416 µM)	1 (≈ 0.833 µM)	1 (≈ 0.833 µM)	1 (≈ 0.833 µM)	1 (≈ 0.833 µM)	1 (≈ 0.833 µM)	0.5 (≈ 0.416 µM)	1 (≈ 0.833 µM)	CC[C@@H](C)[C@@H](NC(=O)[C@@H](CCC(N)=O)NC(=O)[C@H](CO)NC(=O)[C@@H](NC(=O)[C@@H](Cc1ccccc1)NC)[C@@H](C)CC)C(=O)N[C@H](C(=O)N[C@@H](CO)C(=O)N[C@H]1C(=O)N[C@@H](C)C(=O)N[C@@H]([C@@H](C)CC)C(=O)N[C@@H]([C@@H](C)CC)C(=O)N[C@H]1C)[C@@H](C)CC [T84]			
1 (≈ 0.843 µM)	0.5 (≈ 0.421 µM)	2 (≈ 1.69 µM)	2 (≈ 1.69 µM)	2 (≈ 1.69 µM)	1 (≈ 0.843 µM)	2 (≈ 1.69 µM)	1 (≈ 0.843 µM)	2 (≈ 1.69 µM)	CCC[C@@H]1NC(=O)[C@H](C)NC(=O)[C@H](NC(=O)[C@H](CO)NC(=O)[C@@H](NC(=O)[C@H](NC(=O)[C@@H](CCC(N)=O)NC(=O)[C@H](CO)NC(=O)[C@@H](NC(=O)[C@@H](Cc2ccccc2)NC)[C@@H](C)CC)[C@H](C)CC)[C@@H](C)CC)[C@H](C)NC(=O)[C@H]([C@@H](C)CC)NC1=O [T85]			
2 (≈ 1.64 µM)	1 (≈ 0.821 µM)	2 (≈ 1.64 µM)	2 (≈ 1.64 µM)	2 (≈ 1.64 µM)	1 (≈ 0.821 µM)	2 (≈ 1.64 µM)	1 (≈ 0.821 µM)	2 (≈ 1.64 µM)	CC[C@@H](C)[C@@H](NC(=O)[C@@H](CCC(N)=O)NC(=O)[C@H](CO)NC(=O)[C@@H](NC(=O)[C@@H](Cc1ccccc1)NC)[C@@H](C)CC)C(=O)N[C@H](C(=O)N[C@@H](CO)C(=O)N[C@H]1C(=O)N[C@@H](C)C(=O)N[C@@H](CCSC)C(=O)N[C@@H]([C@@H](C)CC)C(=O)N[C@H]1C)[C@@H](C)CC [T86]			
2 (≈ 1.54 µM)	1 (≈ 0.771 µM)	0.5 (≈ 0.386 µM)	1 (≈ 0.771 µM)	1 (≈ 0.771 µM)	1 (≈ 0.771 µM)	1 (≈ 0.771 µM)	0.5 (≈ 0.386 µM)	2 (≈ 1.54 µM)	CC[C@@H](C)[C@@H](NC(=O)[C@@H](CCC(N)=O)NC(=O)[C@H](CCCNC(=N)N)NC(=O)[C@@H](NC(=O)[C@@H](Cc1ccccc1)NC)[C@@H](C)CC)C(=O)N[C@H](C(=O)N[C@@H](CO)C(=O)N[C@H]1C(=O)N[C@@H](C)C(=O)N[C@@H](C2CCCCC2)C(=O)N[C@@H]([C@@H](C)CC)C(=O)O[C@H]1C)[C@@H](C)CC [T87]			

Source: US20210060121A1, “NOVEL ANTIBIOTICS AND METHODS OF USING THEM” (priority 2018, published 2021)
